Consider 2 compounds from patent US20080241862A1, “PROPIONYL AND BUTYRYL LYSINE MODIFICATIONS IN PROTEINS” (priority 2007, published 2008).

The subject of the experiment is K^Buty of H3 and H4 in HeLa cells. The experiment can be described thus: K^Buty level in histones of HeLa cells treated with HDAC inhibitors (immunoblot). Particulars: anti-K^Buty immunoblot. The class given is cell-based. How it is done: FIGS. 17A-C. […] Four peptide libraries were spotted on nitrocellulose membrane with four dilutions and were used to assay the antibody's specificity. The 14-residue randomized peptide libraries have a fixed residue at 8th position, K^Ac in lane 1, K^Prop in lane 2, K^Buty in lane 3, and K in lane 4. Dot-blot analysis was used to test the specificity of the antibody. To perform the dot-blot analysis, 2 ul of peptide diluted in distilled water to different concentrations was spotted on a strip of nitrocellulose membrane and allowed to air dry. The membrane was then assayed in a manner similar to that used in the immunoblot analysis. […] Lane 3 and 4 are WB controls using anti-H3 and anti-H4 antibodies, respectively. For antibody competition assay, 200 ng of anti-K^Buty antibody was incubated with 1 ug of a peptide library with a fixed non-modified lysine (lane 1) or with a fixed butyryllysine (lane 2), respectively. After incubation for 3 hour at room temperature, the antibody was subjected to immunoblot against core histones derived from Hela cells. Histone H3 and H4 antibodies were used to indicate the positions of H3 or H4 (lane 3 and lane 4). […] The core histones were prepared from HeLa cells treated with nothing, or trichostatin A (TSA), or sodium butyrate (NaBu), as indicated. […]
For orientation: In western blotting, separated proteins are transferred to a membrane and probed.

As to `CCCC(=O)[O-].[Na+]` [sodium butyrate], under “20 mM for 6 hours”, the “K^Buty level” value was “dramatically induced”.
As for `CC(/C=C/C(=O)NO)=C\[C@@H](C)C(=O)c1ccc(N(C)C)cc1` [trichostatin A], the “K^Buty level” value (10 uM, 6 Hours) is “dramatically induced”.
